From paper PMC7087588 (Monatshefte Fur Chemie, 2019) come the findings set out here.

Assay [1] has as its system variety of DNA and RNA viruses. The class given is cell-based.
Assay [2] deals with Punta Toro virus, yellow fever virus or Sindbis virus. The class given is cell-based.

SMILES strings stand for the structures. “Also recorded” adds a separate entry of the source.

With `O=C(NN1C(=O)CSC12CCCC2)c1[nH]c2ccc(Cl)cc2c1-c1ccccc1` [Compound 4a, 5-Chloro-N-(3-oxo-1-thia-4-azaspiro[4.4]nonan-4-yl)-3-phenyl-1H-indole-2-carboxamide], in assay [1], the “antiviral activity (in words)” value is on record as “no antiviral activity”.
Take `O=C(NN1C(=O)CSC12CCCCC2)c1[nH]c2ccc(Cl)cc2c1-c1ccccc1` [Compound 4b, 5-Chloro-N-(3-oxo-1-thia-4-azaspiro[4.5]decan-4-yl)-3-phenyl-1H-indole-2-carboxamide]: the “antiviral activity (in words)” value in assay [2] was “moderately active; also recorded: inhibitory effect”.
On the same count and under the same terms, the result for `CC1CCCC2(C1)SCC(=O)N2NC(=O)c1[nH]c2ccc(Cl)cc2c1-c1ccccc1` (stereo not drawn) [Compound 4c, 5-Chloro-N-(7-methyl-3-oxo-1-thia-4-azaspiro[4.5]decan-4-yl)-3-phenyl-1H-indole-2-carboxamide] reads “moderately active; also recorded: inhibitory effect”.
Consider `CC1SC2(CCCC2)N(NC(=O)c2[nH]c3ccc(Cl)cc3c2-c2ccccc2)C1=O` (stereo not drawn) [Compound 5a, 5-Chloro-N-(2-methyl-3-oxo-1-thia-4-azaspiro[4.4]nonan-4-yl)-3-phenyl-1H-indole-2-carboxamide], for which, in assay [1], the “antiviral activity (in words)” value is given as “no antiviral activity”.
`CC1SC2(CCCCC2)N(NC(=O)c2[nH]c3ccc(Cl)cc3c2-c2ccccc2)C1=O` (stereo not drawn) [Compound 5b, 5-Chloro-N-(2-methyl-3-oxo-1-thia-4-azaspiro[4.5]decan-4-yl)-3-phenyl-1H-indole-2-carboxamide]: the “antiviral activity (in words)” value in assay [2] is recorded as “moderately active; also recorded: inhibitory effect”.
As for `CC1CCC2(CC1)SC(C)C(=O)N2NC(=O)c1[nH]c2ccc(Cl)cc2c1-c1ccccc1` (stereo not drawn) [Compound 5d, 5-Chloro-N-(2,8-dimethyl-3-oxo-1-thia-4-azaspiro[4.5]decan-4-yl)-3-phenyl-1H-indole-2-carboxamide], the “antiviral activity (in words)” value in assay [2] is listed as “moderately active; also recorded: inhibitory effect”.
